Source: ChEMBL document CHEMBL4831511, “Fluorovinylsulfones and -Sulfonates as Potent Covalent Reversible Inhibitors of the Trypanosomal Cysteine Protease Rhodesain: Structure-Activity Relationship, Inhibition Mechanism, Metabolism, and In Vivo Studies” (J Med Chem, 2021)
Calls of active or inactive are those of the source. The rule behind the calls is not given here.

Legend:
[1] = tested on: Dengue virus; test: Inhibition of Dengue virus NS2B-NS3 protease assessed as fluorescent emission using boc-Gly-Arg-Arg-AMC at 11 uM by microplate reader relative to control
[2] = organism: Homo sapiens; test: Inhibition of alpha-chymotrypsin-like activity of human 20S proteasome at 11 uM using Succ-Leu-Leu-Val-Tyr-AMC as fluorogenic substrate by microplate reader relative to control
[3] = target: Procathepsin L (Homo sapiens, UniProt P07711); test: Inhibition of human liver CatL assessed as fluorescence using Cbz-Phe-Arg-AMC as substrate measured at second inhibition step by fluorometric enzyme assays
[4] = target: T1, Rhodesain (Trypanosoma brucei rhodesiense, UniProt Q95PM0); test: Competitive inhibition of Trypanosoma brucei rhodesain assessed as fluorescence using Cbz-Phe-Arg-AMC as substrate by fluorometric enzyme assays
[5] = target: Rhodesain (Trypanosoma brucei rhodesiense) (UniProt Q95PM0); test: Reversible inhibition of Trypanosoma brucei rhodesain assessed as reversibility by measuring residual enzymatic activity using Cbz-Phe-Arg-AMC as substrate after 1 hr by fluorometry based dialysis experiment relative to control
[6] = target: Rhodesain (Trypanosoma brucei rhodesiense) (UniProt Q95PM0); test: Reversible inhibition of Trypanosoma brucei rhodesain assessed as reversibility using Cbz-Phe-Arg-AMC as substrate by dilution assay
[7] = organism: Homo sapiens; test: Inhibition of caspase-like activity of human 20S proteasome at 11 uM using Cbz-Leu-Leu-Glu-AMC as fluorogenic substrate by microplate reader relative to control
[8] = tested on: HeLa; test: Cytotoxicity against human HeLa cells by Alamar blue assay; type: functional
[9] = tested on: cathepsin L (CatL) versus rhodesain; test: Selectivity index, ratio of Ki for human liver CatL to Trypanosoma brucei rhodesain; settings: read-out: Selectivity Index
[10] = target: Cathepsin B (Homo sapiens, UniProt P07858); test: Inhibition of human liver CatB assessed as fluorescence using Cbz-Phe-Arg-AMC as substrate at 11 uM by fluorometric enzyme assays
[11] = target: T1, Rhodesain; test: Inhibition of Trypanosoma brucei rhodesain assessed as fluorescence using Cbz-Phe-Arg-AMC as substrate measured at second inhibition step by fluorometric enzyme assays
[12] = target: Proteasome Macropain subunit (Homo sapiens) (UniProt P49721); test: Inhibition of trypsin-like activity of human 20S proteasome at 11 uM using boc-Leu-Arg-Arg-AMC as fluorogenic substrate by microplate reader relative to control
[13] = target: Rhodesain (Trypanosoma brucei rhodesiense) (UniProt Q95PM0); test: Reversible inhibition of Trypanosoma brucei rhodesain assessed as fluorescence using Cbz-Phe-Arg-AMC as substrate by fluorometric enzyme assays
[14] = tested on: Trypanosoma brucei brucei; test: Antiprotozoal activity against Trypanosoma brucei brucei TC211 assessed as luminescence incubated for 24 to 48 hrs by ATPlite assay; type: functional, organism-based
[15] = tested on: J774.1; test: Cytotoxicity against mouse J774.1 cells by Alamar blue assay; type: functional
[16] = tested on: Trypanosoma brucei brucei; test: Antiprotozoal activity against Trypanosoma brucei brucei BS449 assessed as luminescence incubated for 24 to 48 hrs by ATPlite assay; type: functional, organism-based

Sequence of Rhodesain (Trypanosoma brucei rhodesiense) (Q95PM0 1-450): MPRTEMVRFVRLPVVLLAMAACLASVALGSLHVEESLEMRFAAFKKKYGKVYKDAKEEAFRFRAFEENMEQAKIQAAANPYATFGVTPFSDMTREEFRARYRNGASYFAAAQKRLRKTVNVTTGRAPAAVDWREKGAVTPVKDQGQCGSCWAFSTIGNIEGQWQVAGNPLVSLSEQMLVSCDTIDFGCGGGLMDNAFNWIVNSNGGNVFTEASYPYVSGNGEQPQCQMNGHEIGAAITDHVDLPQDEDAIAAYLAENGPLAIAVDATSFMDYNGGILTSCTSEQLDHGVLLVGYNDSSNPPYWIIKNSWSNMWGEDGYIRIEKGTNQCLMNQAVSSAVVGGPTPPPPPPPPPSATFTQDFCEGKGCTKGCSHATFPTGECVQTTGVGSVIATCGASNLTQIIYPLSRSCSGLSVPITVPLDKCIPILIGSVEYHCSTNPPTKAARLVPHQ
T1 sequence (Q95PM0 whole entry): as the sequence (Q95PM0 1-450) above
Sequence of Proteasome Macropain subunit (Homo sapiens) (P49721 whole entry): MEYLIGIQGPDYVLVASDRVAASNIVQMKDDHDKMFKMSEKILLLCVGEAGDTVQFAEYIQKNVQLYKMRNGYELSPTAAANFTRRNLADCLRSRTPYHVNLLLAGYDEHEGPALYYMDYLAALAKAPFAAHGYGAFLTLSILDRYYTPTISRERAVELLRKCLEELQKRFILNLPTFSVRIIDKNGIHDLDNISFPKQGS
Sequence of Procathepsin L (P07711 whole entry): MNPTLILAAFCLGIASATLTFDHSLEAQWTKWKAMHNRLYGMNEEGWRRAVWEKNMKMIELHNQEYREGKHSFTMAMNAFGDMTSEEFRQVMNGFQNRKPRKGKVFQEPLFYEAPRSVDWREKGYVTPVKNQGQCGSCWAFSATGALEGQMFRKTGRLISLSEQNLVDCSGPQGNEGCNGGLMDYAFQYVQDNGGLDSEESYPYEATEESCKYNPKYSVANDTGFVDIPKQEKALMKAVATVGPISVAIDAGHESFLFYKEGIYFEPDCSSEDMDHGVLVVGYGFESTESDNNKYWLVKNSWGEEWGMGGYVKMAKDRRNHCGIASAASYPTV

| EC50 [16] | Compound | inhibition [1] | inhibition [2] | Ki [3] | Ki [4] | Activity [5] | Activity [6] | inhibition [7] | CC50 [8] | selectivity ratio [9] | inhibition [10] | Ki [11] | inhibition [12] | Activity [13] | EC50 [14] | CC50 [15] |
| --- | --- | --- | --- | --- | --- | --- | --- | --- | --- | --- | --- | --- | --- | --- | --- | --- |
|  | Cc1ccc(C[C@H](NC(=O)c2ccncc2)C(=O)N[C@H](/C=C(\F)S(=O)(=O)Cc2ccccc2)CCc2ccccc2)cc1 | inactive | inactive | 181 nM | 25 nM | 47% | Active | inactive | > 100000 nM | 12 | 35% | 15 nM | inactive | Active | 1400 nM |  |
| 3000 nM | O=C(N[C@@H](Cc1ccccc1)C(=O)N[C@H](/C=C(\F)S(=O)(=O)c1ccccc1)CCc1ccccc1)c1ccncc1 | inactive | 10% |  | 47 nM |  | Active | 41% | > 100000 nM |  |  |  | inactive | Active |  | > 100000 nM |
